Patent publication US20200113181A1, “HERBICIDAL COMPOUNDS” (SYNGENTA PARTICIPATIONS AG, priority 2016, published 2020)

What was measured:
Assay type in all cases: in vivo
[1] = system: Lolium perenne (LOLPE); experiment: Glasshouse herbicide test, pre- and post-emergence, Lolium perenne; conditions: 250 g/h, evaluated after 13 days; for LOLPE POST, percentage damage caused to the plant (five point scale): post-emergence; for LOLPE PRE, percentage damage caused to the plant (five point scale): pre-emergence
Procedure: (§1) Seeds of a variety of test species are sown in standard soil in pots (Lolium perenne (LOLPE), Setaria faberi (SETFA), Alopecurus myosuroides (ALOMY), Echinochloa crus-galli (ECHCG), Avena fatua (AVEFA)). After cultivation for one day (pre-emergence) or after 8 days cultivation (post-emergence) under controlled conditions in a glasshouse (at 24/16° C., day/night; 14 hours light; 65% humidity), the plants are sprayed with an aqueous spray solution derived from the formulation of the technical active ingredient in acetone/water (50:50) solution containing 0.5% Tween 20 (polyoxyethelyene sorbitan monolaurate, CAS RN 9005-64-5). Compounds are applied at […]. The test plants are then grown in a glasshouse under controlled conditions in a glasshouse (at 24/16° C., day/night; 14 hours light; 65% humidity) and watered twice daily. After 13 days for pre and post-emergence, the test is evaluated for the percentage damage caused to the plant. The biological activities are shown in the following table on a five point scale (5=80-100%; 4=60-79%; 3=40-59%; 2=20-39%; 1=0-19%).

[2] = system: Setaria faberi (SETFA); experiment: Glasshouse herbicide test, pre- and post-emergence, Setaria faberi; conditions: 250 g/h, evaluated after 13 days; for SETFA POST, percentage damage caused to the plant (five point scale): post-emergence; for SETFA PRE, percentage damage caused to the plant (five point scale): pre-emergence
Procedure: as §1

[3] = system: Alopecurus myosuroides (ALOMY); experiment: Glasshouse herbicide test, pre- and post-emergence, Alopecurus myosuroides; conditions: 250 g/h, evaluated after 13 days; for ALOMY POST, percentage damage caused to the plant (five point scale): post-emergence; for ALOMY PRE, percentage damage caused to the plant (five point scale): pre-emergence
Procedure: as §1

[4] = system: Echinochloa crus-galli (ECHCG); experiment: Glasshouse herbicide test, pre- and post-emergence, Echinochloa crus-galli; conditions: 250 g/h, evaluated after 13 days; for ECHCG POST, percentage damage caused to the plant (five point scale): post-emergence; for ECHCG PRE, percentage damage caused to the plant (five point scale): pre-emergence
Procedure: as §1

[5] = system: Avena fatua (AVEFA); experiment: Glasshouse herbicide test, pre- and post-emergence, Avena fatua; conditions: 250 g/h, evaluated after 13 days; for AVEFA POST, percentage damage caused to the plant (five point scale): post-emergence; for AVEFA PRE, percentage damage caused to the plant (five point scale): pre-emergence
Procedure: as §1

SMILES | LOLPE POST, percentage damage caused to the plant (five point scale) [1] | LOLPE PRE, percentage damage caused to the plant (five point scale) [1] | SETFA POST, percentage damage caused to the plant (five point scale) [2] | SETFA PRE, percentage damage caused to the plant (five point scale) [2] | ALOMY POST, percentage damage caused to the plant (five point scale) [3] | ALOMY PRE, percentage damage caused to the plant (five point scale) [3] | ECHCG POST, percentage damage caused to the plant (five point scale) [4] | ECHCG PRE, percentage damage caused to the plant (five point scale) [4] | AVEFA POST, percentage damage caused to the plant (five point scale) [5] | AVEFA PRE, percentage damage caused to the plant (five point scale) [5]
CC#Cc1ccc(C2=C(OC(=O)C(C)(C)C)[C@@H]3[C@H](C2=O)[C@@H]2O[C@H]3C[C@@H]2COC)c(OC)c1 (racemic) [Compound 1.26] | 5 (5=80-100%) | 5 (5=80-100%) | 5 (5=80-100%) | 5 (5=80-100%) | 5 (5=80-100%) | 5 (5=80-100%) | 5 (5=80-100%) | 5 (5=80-100%) | 5 (5=80-100%) | 5 (5=80-100%)
CC#Cc1ccc(C2C(=O)[C@H]3[C@@H]4CC[C@@](C)(O4)[C@H]3C2=O)c(OC)c1 (stereo partly shown) [Compound 1.22] | 5 (5=80-100%) | 5 (5=80-100%) | 5 (5=80-100%) | 5 (5=80-100%) | 5 (5=80-100%) | 5 (5=80-100%) | 5 (5=80-100%) | 5 (5=80-100%) | 5 (5=80-100%) | 5 (5=80-100%)
CC#Cc1ccc(C2C(=O)[C@@H]3[C@H](C2=O)[C@H]2CC[C@@H]3O2)c(OCCC)c1 (mixture of isomers) [Compound 1.31] | 5 (5=80-100%) | 5 (5=80-100%) | 5 (5=80-100%) | 5 (5=80-100%) | 5 (5=80-100%) | 5 (5=80-100%) | 5 (5=80-100%) | 5 (5=80-100%) | 5 (5=80-100%) | 5 (5=80-100%)
CC#Cc1ccc(C2C(=O)[C@@H]3[C@@H]4O[C@@H](C[C@@H]4CO)[C@@H]3C2=O)c(OC)c1 (mixture of isomers) [Compound 1.14] | 4 (4=60-79%) | – | 5 (5=80-100%) | – | 3 (3=40-59%) | – | 5 (5=80-100%) | – | 5 (5=80-100%) | –
CC#Cc1ccc(C2C(=O)[C@@H]3[C@@H]4O[C@@H](C[C@@H]4C4OCCO4)[C@@H]3C2=O)c(OC)c1 (mixture of isomers) [Compound 1.18] | 5 (5=80-100%) | 5 (5=80-100%) | 5 (5=80-100%) | 5 (5=80-100%) | 5 (5=80-100%) | 4 (4=60-79%) | 5 (5=80-100%) | 5 (5=80-100%) | 5 (5=80-100%) | 4 (4=60-79%)
CC#Cc1ccc(C2C(=O)[C@@H]3[C@H](C2=O)[C@H]2C=C(C)[C@@H]3O2)c(OC)c1 (mixture of isomers) [Compound 1.16] | 5 (5=80-100%) | 5 (5=80-100%) | 5 (5=80-100%) | 5 (5=80-100%) | 5 (5=80-100%) | 5 (5=80-100%) | 5 (5=80-100%) | 5 (5=80-100%) | 5 (5=80-100%) | 5 (5=80-100%)
CC#Cc1ccc(C2C(=O)[C@@H]3[C@@H]4O[C@@H](C[C@@H]4OC)[C@@H]3C2=O)c(OC)c1 (mixture of isomers) [Compound 1.25] | 5 (5=80-100%) | 5 (5=80-100%) | 5 (5=80-100%) | 5 (5=80-100%) | 5 (5=80-100%) | 5 (5=80-100%) | 5 (5=80-100%) | 5 (5=80-100%) | 5 (5=80-100%) | 5 (5=80-100%)
CC#Cc1ccc(C2C(=O)[C@@H]3[C@@H]4O[C@@H](C[C@H]4COC)[C@@H]3C2=O)c(OC)c1 (mixture of isomers) [Compound 1.15] | 5 (5=80-100%) | 5 (5=80-100%) | 5 (5=80-100%) | 5 (5=80-100%) | 5 (5=80-100%) | 5 (5=80-100%) | 5 (5=80-100%) | 5 (5=80-100%) | 5 (5=80-100%) | 5 (5=80-100%)
CC#Cc1ccc(C2C(=O)[C@@H]3[C@@H]4O[C@@H](C[C@H]4CC)[C@@H]3C2=O)c(OC)c1 (stereo partly shown) [Compound 1.23] | 5 (5=80-100%) | 5 (5=80-100%) | 5 (5=80-100%) | 5 (5=80-100%) | 5 (5=80-100%) | 5 (5=80-100%) | 5 (5=80-100%) | 5 (5=80-100%) | 5 (5=80-100%) | 5 (5=80-100%)
CC#Cc1ccc(C2C(=O)[C@@H]3[C@H](C2=O)[C@H]2CC[C@@H]3O2)c(OCCOC)c1 (mixture of isomers) [Compound 1.32] | 5 (5=80-100%) | 4 (4=60-79%) | 5 (5=80-100%) | 3 (3=40-59%) | 4 (4=60-79%) | 1 (1=0-19%) | 5 (5=80-100%) | 3 (3=40-59%) | 5 (5=80-100%) | 4 (4=60-79%)
CC#Cc1ccc(C2C(=O)[C@@H]3[C@@H]4O[C@@H](C[C@H]4CC)[C@@H]3C2=O)c(OC)c1 (stereo partly shown) [Compound 1.24] | – | 5 (5=80-100%) | – | 5 (5=80-100%) | – | 5 (5=80-100%) | – | 5 (5=80-100%) | 5 (5=80-100%) | –
